This passage reports mortality results from patent publication US20250084058A1, “PHENYLPYRAZOLE COMPOUND AND APPLICATION THEREOF” (priority 2022, published 2025).

Like-named read-outs stand apart in the source and are kept apart here.

Assay type in all cases: in vivo
The test system of one test is Mythimna separata. The test can be described thus: Activity determination of killing Mythimna separata (Airbrush spray, corn leaf segments). The settings on record: foliar, dose 1.25 mg/L, 3rd instar larvae, 3rd day after administration, read-out: mortality against Mythimna separata. How it is done: (§1) The compounds to be tested were dissolved in a mixed solvent of acetone/methanol (1:1) and then diluted to desired concentrations with water containing 0.1% (wt) Tween 80.
(§2) With Mythimna separata and Plutella xylostella as targets, the activity was determined by Airbrush spray method.
Determination method: Corn leaves were cut into leaf segments with the length of 2 cm, the pressure of Airbrush spray treatment is 10 psi (about 0.7 kg/cm^2), and the compounds to be tested were sprayed onto the front and back surfaces of each leaf segment at a liquid amount of 0.5 mL. After drying in the shade, 10 3rd instar larvae were inoculated to each treatment, and each treatment was repeated for 3 times. After the treatment, the larvae were placed in an observation room for culture at 25° C. with relative humidity of 60-70%. On the 3rd day after administration, the number of surviving larvae was investigated, and the mortality was calculated.

The test system of a further test is Tetranychus cinnabarinus. Description: Greenhouse acaricidal activity on adult acarids of Tetranychus cinnabarinus (spraying of Phaseolus vulgaris seedlings). Particulars: dose 1.25 mg/L, after 72 h, read-out: mortality against adult acarids of Tetranychus cinnabarinus. How it is done:
According to the solubility of the compounds to be tested, the compounds to be tested were dissolved in acetone or dimethyl sulfoxide and prepared into 50 mL of solutions to be tested at desired concentrations with a 0.1% Tween 80 solution, where the content of the acetone or dimethyl sulfoxide in the solutions was not higher than 10%.
Two true leaves of Phaseolus vulgaris seedlings were taken, and 30-40 adult acarids of Tetranychus cinnabarinus were inoculated. After the cardinal number was investigated, the whole plants were subjected to spraying treatment with a hand-held sprayer, each treatment was repeated for 3 times, and the plants were placed in a standard observation room after the treatment. The number of surviving acarids was investigated after 72 h, and the mortality was calculated.

The subject of another test is Ctenocephalides felis. Description: Insecticidal test on Ctenocephalides felis (compound film in culture dish). The settings on record: 1 μg/cm^2; adult Ctenocephalides felis; after 72 h; 25° C.; read-out: insect mortality (Ctenocephalides felis). How it is done:
4 mg of compounds to be tested were dissolved in 40 mL of acetone to obtain acetone solutions with a concentration of 100 mg/L. Bottom surfaces and side surfaces of culture dishes with an inner diameter of 5.3 cm were coated with 400 μL of the drug solutions, and when the acetone was volatilized, films of the compounds of the present disclosure were prepared on inner walls of the culture dishes. The inner walls of the culture dishes used were 40 cm^2, and a dose of the treatment drugs was 1 μg/cm^2. 10 adult Ctenocephalides felis (males and females were mixed) were placed in the culture dishes, and the culture dishes were covered and then stored in a constant-temperature room at 25° C. The number of dead insects was checked after 72 h, and the insect mortality was calculated. The test was repeated for 3 times. Test results: The insect mortality of compounds 1, 2, 3, 4, 5, 11, 12, 18, 32, 33, 34, 46, 60, 74, 88, 99, 101, 102, 104, 105, 108, 109, 110, 111, 113 and 114 is 70% or above.

The subject of another test is Dermacentor variabilis. The test can be described thus: Insecticidal test on Dermacentor variabilis (compound film in culture dish). The settings on record: 1 μg/cm^2, 1st nymphs, after 24 h, 25° C., read-out: insect mortality (Dermacentor variabilis). The protocol: 4 mg of compounds to be tested were dissolved in 40 mL of acetone to obtain acetone solutions with a concentration of 100 mg/L. Bottom surfaces and side surfaces of 2 culture dishes with an inner diameter of 5.3 cm were coated with 400 μL of the drug solutions, and when the acetone was volatilized, films of the compounds of the present disclosure were prepared on inner walls of the culture dishes. The inner walls of the culture dishes used were 40 cm^2, and a dose of the treatment drugs was 1 μg/cm^2. 10 1st nymphs of Dermacentor variabilis (males and females were mixed) were placed in the culture dishes. The 2 culture dishes were combined, sealed with tape at a junction portion to prevent escape of the nymphs, and then stored in a constant-temperature room at 25° C. The number of dead insects was checked after 24 h, and the insect mortality was calculated. The test was repeated for 3 times. Test results: The insect mortality of compounds 1, 2, 3, 4, 5, 11, 12, 18, 32, 33, 34, 46, 60, 74, 88, 99, 101, 102, 104, 105, 108, 109, 110, 111, 113 and 114 is 70% or above.

The subject of a further test is Plutella xylostella. The test can be described thus: Activity determination of killing Plutella xylostella (Airbrush spray, cabbage leaf discs). Particulars: foliar; for mortality at 0.3125 µg/mL: read-out: Mortality (%, on 3rd day after administration) 0.3125 mg/L; for mortality at 0.625 µg/mL: read-out: Mortality (%, on 3rd day after administration) 0.625 mg/L. How it is done: as §1, §2
Determination method: Cabbage leaves were punched into leaf discs with the diameter of 2 cm by a puncher, the pressure of Airbrush spray treatment is 10 psi (about 0.7 kg/cm^2), and the compounds to be tested were sprayed onto the front and back surfaces of each leaf disc at a liquid amount of 0.5 mL. After drying in the shade, 10 3rd instar larvae were inoculated to each treatment, and each treatment was repeated for 3 times. After the treatment, the larvae were placed in an observation room for culture at 25° C. with relative humidity of 60-70%. On 3rd day after administration, the number of surviving larvae was investigated, and the mortality was calculated.
Some compounds of the present disclosure and control compounds were selected to carry out parallel comparative experiments of the insecticidal activity against Plutella xylostella (on 3rd day after administration), and the determination method was the same as above.

[1] abbreviates: 0.3125 mg/L, parallel comparative experiment, 3rd day after administration.
The mark [2] stands for this setting: 0.625 mg/L, parallel comparative experiment, 3rd day after administration.
[3] abbreviates: 1.25 mg/L, parallel comparative experiment, 3rd day after administration, read-out: Mortality (%, on 3rd day after administration) 1.25 mg/L.
[4] abbreviates: dose 1.25 mg/L, 3rd instar larvae, 3rd day after administration, read-out: mortality against Plutella xylostella.
[5] abbreviates: read-out: Mortality (%, on 3rd day after administration) 1.25 mg/L.

Take `CC(=O)N(C(=O)c1cc(-c2cnn(-c3c(Cl)cc(C(F)(C(F)(F)F)C(F)(F)F)cc3Cl)c2)cnc1Cl)C1CC1` [Compound 99]: the mortality at 1.25 µg/mL in the test with Mythimna separata is not below 90%; with Tetranychus cinnabarinus, not below 90%; in the test with Plutella xylostella (setting [3]), 100%; in the test on Plutella xylostella (setting [4]), not below 90%. For the same compound, the mortality at 1 µg/cm2 with Ctenocephalides felis and in the test with Dermacentor variabilis was not below 70% each time. Besides, the mortality at 0.3125 µg/mL with Plutella xylostella (setting [1]) stood at 100%. In the test with Plutella xylostella (setting [2]), the mortality at 0.625 µg/mL was found to be 100%.

For the compound `N#CCN(C(=O)c1cc(-c2cnn(-c3c(Cl)cc(C(F)(C(F)(F)F)C(F)(F)F)cc3Br)c2)cnc1Cl)C1CC1` [Compound 32], the mortality at 1.25 µg/mL in the test with Mythimna separata, in the test on Tetranychus cinnabarinus and in the test with Plutella xylostella (setting [4]) was not below 90% in each case. Moreover, the mortality at 1 µg/cm2 in the test with Ctenocephalides felis and in the test with Dermacentor variabilis was not below 70% throughout.

Take `N#CCN(C(=O)c1cc(-c2cnn(-c3c(Br)cc(C(F)(C(F)(F)F)C(F)(F)F)cc3C(F)(F)F)c2)cnc1Cl)C1CC1` [Compound 46]: the mortality at 1.25 µg/mL in the test on Mythimna separata, with Tetranychus cinnabarinus and in the test on Plutella xylostella (setting [4]) was not below 90% throughout. Moreover, the mortality at 1 µg/cm2 with Ctenocephalides felis and in the test on Dermacentor variabilis was not below 70% throughout.

Consider `CCCC(=O)N(C(=O)c1cc(-c2cnn(-c3c(Cl)cc(C(F)(C(F)(F)F)C(F)(F)F)cc3Cl)c2)cnc1Cl)C1(C#N)CC1` [Compound 110], for which the mortality at 1.25 µg/mL with Mythimna separata, with Tetranychus cinnabarinus and in the test on Plutella xylostella (setting [4]) was not below 90% in each case. Besides, the mortality at 1 µg/cm2 in the test on Ctenocephalides felis and with Dermacentor variabilis was not below 70% in each case.

In the case of `CC(C)C(=O)N(C(=O)c1cc(-c2cnn(-c3c(Cl)cc(C(F)(C(F)(F)F)C(F)(F)F)cc3Cl)c2)cnc1Cl)C1CC1` [Compound 102], the mortality at 1.25 µg/mL with Mythimna separata, in the test with Tetranychus cinnabarinus and in the test on Plutella xylostella (setting [4]) was not below 90% throughout. In addition, the mortality at 1 µg/cm2 in the test on Ctenocephalides felis and in the test with Dermacentor variabilis was not below 70% in each case.

Take `N#CCN(C(=O)c1cc(-c2cnn(-c3c(Cl)cc(C(F)(C(F)(F)F)C(F)(F)F)cc3OC(F)(F)F)c2)cnc1Cl)C1CC1` [Compound 88]: the mortality at 1.25 µg/mL with Mythimna separata, with Tetranychus cinnabarinus and in the test on Plutella xylostella (setting [4]) was not below 90% each time. The mortality at 1 µg/cm2 with Ctenocephalides felis and in the test with Dermacentor variabilis was not below 70% throughout.

`CC(=O)N(C(=O)c1cc(-c2cnn(-c3c(Cl)cc(C(F)(C(F)(F)F)C(F)(F)F)cc3Cl)c2)cnc1Cl)C1(C#N)CC1` [Compound 108]: the mortality at 1.25 µg/mL was not below 90% with Mythimna separata, not below 90% in the test on Tetranychus cinnabarinus, 100% in the test with Plutella xylostella (setting [3]) and not below 90% in the test with Plutella xylostella (setting [4]). For the same compound, the mortality at 1 µg/cm2 in the test on Ctenocephalides felis and in the test with Dermacentor variabilis was not below 70% throughout. Moreover, the mortality at 0.3125 µg/mL with Plutella xylostella (setting [1]) is 100%. Also, the mortality at 0.625 µg/mL in the test on Plutella xylostella (setting [2]) was 100%.

`N#CCN(C(=O)c1cc(-c2cnn(-c3c(Cl)cc(C(F)(C(F)(F)F)C(F)(F)F)cc3Cl)c2)cnc1Cl)C1CC1` [Compound 4]: the mortality at 1.25 µg/mL with Mythimna separata was not below 90%; in the test with Tetranychus cinnabarinus, not below 90%; in the test on Plutella xylostella (setting [3]), 100%; in the test with Plutella xylostella (setting [4]), not below 90%. The mortality at 1 µg/cm2 with Ctenocephalides felis and with Dermacentor variabilis was not below 70% throughout. Also, the mortality at 0.3125 µg/mL in the test on Plutella xylostella (setting [1]) was found to be 100%. Further, the mortality at 0.625 µg/mL with Plutella xylostella (setting [2]) is 100%.

Consider `N#CCCCN(C(=O)c1cc(-c2cnn(-c3c(Cl)cc(C(F)(C(F)(F)F)C(F)(F)F)cc3Br)c2)cnc1Cl)C1CC1` [Compound 34], for which the mortality at 1.25 µg/mL in the test with Mythimna separata, in the test on Tetranychus cinnabarinus and in the test with Plutella xylostella (setting [4]) was not below 90% throughout. Also, the mortality at 1 µg/cm2 in the test with Ctenocephalides felis and in the test on Dermacentor variabilis was not below 70% throughout.

Consider `N#CC1(N(C(=O)c2cc(-c3cnn(-c4c(Cl)cc(C(F)(C(F)(F)F)C(F)(F)F)cc4Cl)c3)cnc2Cl)C(=O)C2CC2)CC1` [Compound 113], for which the mortality at 1.25 µg/mL was not below 90% in the test with Mythimna separata, not below 90% with Tetranychus cinnabarinus, 100% with Plutella xylostella (setting [3]) and not below 90% with Plutella xylostella (setting [4]). Further, the mortality at 1 µg/cm2 with Ctenocephalides felis and in the test with Dermacentor variabilis was not below 70% throughout. Besides, in the test with Plutella xylostella (setting [1]), the mortality at 0.3125 µg/mL was 100%. The mortality at 0.625 µg/mL with Plutella xylostella (setting [2]) worked out at 100%.

As to `O=C(c1cc(-c2cnn(-c3c(Cl)cc(C(F)(C(F)(F)F)C(F)(F)F)cc3Cl)c2)cnc1Cl)N(C(=O)C1CC1)C1CC1` [Compound 104], the mortality at 1.25 µg/mL in the test on Mythimna separata is not below 90%; in the test on Tetranychus cinnabarinus it was not below 90%; in the test with Plutella xylostella (setting [3]) it was 100%; with Plutella xylostella (setting [4]) it was not below 90%. Further, the mortality at 1 µg/cm2 in the test on Ctenocephalides felis and in the test with Dermacentor variabilis was not below 70% each time. Further, the mortality at 0.3125 µg/mL in the test on Plutella xylostella (setting [1]) came to 100%. Moreover, in the test on Plutella xylostella (setting [2]), the mortality at 0.625 µg/mL amounted to 100%.

Take `O=C(NC1CC1)c1cc(-c2cnn(-c3c(Cl)cc(C(F)(C(F)(F)F)C(F)(F)F)cc3Cl)c2)cnc1Cl` [CK1, reference compound]: in the test on Plutella xylostella (setting [1]), the mortality at 0.3125 µg/mL was 20%. Further, in the test on Plutella xylostella (setting [2]), the mortality at 0.625 µg/mL stood at 66.7%. The mortality at 1.25 µg/mL in the test with Plutella xylostella (setting [3]) worked out at 100%.

On to `N#CC1(NC(=O)c2cc(-c3cnn(-c4c(Cl)cc(C(F)(C(F)(F)F)C(F)(F)F)cc4Cl)c3)cnc2Cl)CC1` [CK3, reference compound], for which, in the test on Plutella xylostella, the mortality at 0.3125 µg/mL is 30% and the mortality at 0.625 µg/mL worked out at 60%. In the test on Plutella xylostella (setting [5]), the mortality at 1.25 µg/mL was determined as 100%.

`CN(C(=O)c1cc(-c2cnn(-c3c(Cl)cc(C(F)(C(F)(F)F)C(F)(F)F)cc3Cl)c2)cnc1Cl)C1(C#N)CC1` [CK4, reference compound]: in the test with Plutella xylostella, the mortality at 0.3125 µg/mL is 20% and the mortality at 0.625 µg/mL is 56.7%. The mortality at 1.25 µg/mL in the test with Plutella xylostella (setting [5]) came out at 90%.

Take `CN(C(=O)c1cc(-c2cnn(-c3c(Cl)cc(C(F)(C(F)(F)F)C(F)(F)F)cc3Cl)c2)cnc1Cl)C1CC1` [CK2, reference compound]: in the test with Plutella xylostella, the mortality at 0.3125 µg/mL is 13.3% and the mortality at 0.625 µg/mL came to 60%. In addition, the mortality at 1.25 µg/mL with Plutella xylostella (setting [5]) was 93.3%.
